# Measurements as given in US20150072967A1, “TAUROURSODEOXYCHOLIC ACID ATTENTUATES OR ABOLISHES FORMATION AND DEPOSITION OF AMYLOID-B PEPTIDE” (Metselex, Inc., priority 2012, published 2015).
# What was measured:
# APP/PS1 mice [1] = experiment: Thioflavin T staining of amyloid plaque burden in brain sections; type: in vivo, mouse
# Procedure: (§1) Transgenic mice and TUDCA treatment. APP/PS1 double-transgenic mice express human APP containing the KM670/671NL Swedish double mutation and human PS 1 carrying the L166P mutation under the control of a neuron-specific murine Thy-1 minigene promoter. The two transgenes cosegregate in these mice. APP/PS1 mice were maintained on a C57BL/6J genetic background and genotyped by PCR analysis of genomic DNA from tail biopsies. All animals were kept in standard animal cages under conventional laboratory conditions (12 h light/dark cycle, 22° C.), with ad libitum access to food and water. […]
# Image analysis and semiquantification of immunofluorescence. Images were acquired with an Axioskop fluorescence microscope (Carl Zeiss GmbH, Hamburg, Germany). Semiquantitative analysis of mean fluorescence intensities (MFIs) of GFAP, Iba-I, and MAP2 were performed using NIH Image J software. […] An intensity threshold was set and kept constant for all images analyzed. MFI per square millimeter area was calculated by dividing the MFI units by the area of outlined regions and is presented as a bar graph. The total number of thioflavin- and Aβ-positive plaques in the hippocampus and frontal cortex was counted and presented as plaque number per square millimeter.
# APP/PS1 mice [2] = experiment: Aβ immunohistochemistry (6E10), Aβ plaque number in brain; type: in vivo, mouse; conditions: TUDCA-treated APP/PS1 mice vs untreated transgenic mice
# Procedure: as §1, with “water. The animals were randomized for therapy trials and coded, and the operators remained double blinded to which treatment they received, until the completion of data collection. Male APP/PS1 transgenic mice and wild-type littermates were randomly assigned into four groups: TUDCA-treated and untreated (control) APP/PS1 mice and TUDCA-treated and untreated (control) wild-type mice.” for “water.”
# (§2) Image analysis and semiquantification of immunofluorescence. Images were acquired with an Axioskop fluorescence microscope (Carl Zeiss GmbH, Hamburg, Germany). Semiquantitative analysis of mean fluorescence intensities (MFIs) of GFAP, Iba-I, and MAP2 were performed using NIH Image J software. […] An intensity threshold was set and kept constant for all images analyzed. […]
# APP/PS1 mice [3] = experiment: Recognition, spatial and contextual fear memory; type: in vivo, mouse; conditions: transgenic mice vs control transgenic mice
# Procedure: Transgenic mice and TUDCA treatment. APP/PS1 double-transgenic mice express human APP containing the KM670/671NL Swedish double mutation and human PS 1 carrying the L166P mutation under the control of a neuron-specific murine Thy-1 minigene promoter. The two transgenes cosegregate in these mice. APP/PS1 mice were maintained on a C57BL/6J genetic background and genotyped by PCR analysis of genomic DNA from tail biopsies. All animals were kept in standard animal cages under conventional laboratory conditions (12 h light/dark cycle, 22° C.), with ad libitum access to food and water. The animals were randomized for therapy trials and coded, and the operators remained double blinded to which treatment they received, until the completion of data collection. Male APP/PS1 transgenic mice and wild-type littermates were randomly assigned into four groups: TUDCA-treated and untreated (control) APP/PS1 mice and TUDCA-treated and untreated (control) wild-type mice. Animals were fed a diet of standard laboratory chow supplemented with either 0.4% (wt/wt) TUDCA (sodium salt; Prodotti Chimici e Alimentari S.p.A., Basaluzzo, Italy), or no bile acid, custom made by Harlan (Harlan Laboratories Models, S.L., Barcelona, Spain). Treatment was started when the mice were 2 months old and continued for 6 months. […]
# APP/PS1 mice [4] = experiment: GFAP immunofluorescence (activated astrocytes); type: in vivo, mouse; conditions: hippocampus and frontal cortex; TUDCA-treated APP/PS1 mice; p<0.05
# Procedure: as §1, with “water. The animals were randomized for therapy trials and coded, and the operators remained double blinded to which treatment they received, until the completion of data collection. Male APP/PS1 transgenic mice and wild-type littermates were randomly assigned into four groups: TUDCA-treated and untreated (control) APP/PS1 mice and TUDCA-treated and untreated (control) wild-type mice.” for “water.”
# as §2
# APP/PS1 mice [5] = experiment: Iba-I immunostaining (activated microglia); type: in vivo, mouse
# Procedure: as §1, with “water. The animals were randomized for therapy trials and coded, and the operators remained double blinded to which treatment they received, until the completion of data collection. Male APP/PS1 transgenic mice and wild-type littermates were randomly assigned into four groups: TUDCA-treated and untreated (control) APP/PS1 mice and TUDCA-treated and untreated (control) wild-type mice.” for “water.”
# (§3) Image analysis and semiquantification of immunofluorescence. Images were acquired with an Axioskop fluorescence microscope (Carl Zeiss GmbH, Hamburg, Germany). Semiquantitative analysis of mean fluorescence intensities (MFIs) of GFAP, Iba-I, and MAP2 were performed using NIH Image J software. […]
# APP/PS1 mice [6] = experiment: MAP2 immunoreactivity (neuronal integrity); type: in vivo, mouse
# Procedure: as §1, with “water. The animals were randomized for therapy trials and coded, and the operators remained double blinded to which treatment they received, until the completion of data collection. Male APP/PS1 transgenic mice and wild-type littermates were randomly assigned into four groups: TUDCA-treated and untreated (control) APP/PS1 mice and TUDCA-treated and untreated (control) wild-type mice.” for “water.”
# as §3
# [7] = test system: CTGF, A2M, APOE, SORLA expression; experiment: Real-time PCR of lipid-metabolism mediators in brain; type: in vivo, mouse
# Procedure: (§4) Transgenic mice and TUDCA treatment. APP/PS1 double-transgenic mice express human APP containing the KM670/671NL Swedish double mutation and human PS 1 carrying the L166P mutation under the control of a neuron-specific murine Thy-1 minigene promoter. The two transgenes cosegregate in these mice. APP/PS1 mice were maintained on a C57BL/6J genetic background and genotyped by PCR analysis of genomic DNA from tail biopsies. All animals were kept in standard animal cages under conventional laboratory conditions (12 h light/dark cycle, 22° C.), with ad libitum access to food and water. The animals were randomized for therapy trials and coded, and the operators remained double blinded to which treatment they received, until the completion of data collection. Male APP/PS1 transgenic mice and wild-type littermates were randomly assigned into four groups: TUDCA-treated and untreated (control) APP/PS1 mice and TUDCA-treated and untreated (control) wild-type mice. Animals were fed a diet of standard laboratory chow supplemented with either 0.4% (wt/wt) TUDCA (sodium salt; Prodotti Chimici e Alimentari S.p.A., Basaluzzo, Italy), or no bile acid, custom made by Harlan (Harlan Laboratories Models, S.L., Barcelona, Spain). Treatment was started when the mice were 2 months old and continued for 6 months. The dose and duration of TUDCA, whose pharmacokinetics has been extensively studied in rodents, were chosen based on pilot studies using APP/PS1 mice and other animal studies.
# Real-time PCR. Total RNA from dissected hippocampus and frontal cortex was isolated with TRIzol (Invitrogen), according to the manufacturer's instructions. Samples were homogenized in TRIzol using a motor-driven Bio-vortexer (No 1083; Biospec Products, Bartlesfield, Okla.) and disposable RNAse/DNAse free sterile pestles (Thermo Scientific). […] Real-time quantitative PCR analysis was performed in the 7300 Real-Time PCR System (Applied Biosystems, Foster City, Calif., USA), using SYBR Green PCR master mix (Fermentas International Inc., Glen Burnie, Md., USA). Triplicate reactions were run per sample. The expression levels relative to GAPDH were calculated using the ΔΔCt method. TUDCA-untreated wild-type mice were used as the calibrator. The n-fold change in expression was obtained using the formula: 2^−ΔΔCt.
# γ-secretase = γ-secretase activity / APP processing by immunoblot of APP-CTFs and total Aβ; type: in vivo, mouse; conditions: brain tissue
# Procedure: as §4
# γ-secretase activity. Assessment of γ-secretase activity was performed by detection of the ˜7 KDa carboxyl terminal fragment (CTF)-γ cleavage product of APP. Briefly, 60 μg of total protein extracts were resolved electrophoretically in 10-20% Tris-Tricine gels (BioRad), and CTF-γ (and CTF-β) identified using an anti-APP, C-terminal rabbit polyclonal antibody (Sigma-Aldrich; 1:2000). After stripping, membranes were incubated with the primary mouse monoclonal antibody reactive to Aβ (6E10; Signet; 1:1000) to detect total Aβ peptide. Immunoreactivities were visualized as described above.
# APP/PS1 mice [8] = experiment: Sandwich ELISA of Aβ1-40 and Aβ1-42 in brain extracts; type: in vivo, mouse; conditions: hippocampus and frontal cortex of APP/PS1 mice; p<0.01
# Procedure: as §1, with “water. The animals were randomized for therapy trials and coded, and the operators remained double blinded to which treatment they received, until the completion of data collection. Male APP/PS1 transgenic mice and wild-type littermates were randomly assigned into four groups: TUDCA-treated and untreated (control) APP/PS1 mice and TUDCA-treated and untreated (control) wild-type mice.” for “water.”
# Sandwich ELISA. […] Total Aβ1-40 or Aβ1-42 content was measured by sandwich ELISA (Millipore) according to the manufacturer's instructions. Values were normalized to the respective total protein concentration and expressed as % of wild-type control.
# hepatocytes = conditions: DNA microarray; cited from earlier work
# [9] = cited from earlier work
# [10] = APP/PS1 mice hippocampus, p<0.05
# [11] = TUDCA-treated APP/PS1 mice vs control transgenic mice
smiles,measurement,setting,value
"C[C@H](CCC(=O)NCCS(=O)(=O)O)[C@H]1CC[C@H]2[C@@H]3[C@@H](O)C[C@@H]4C[C@H](O)CC[C@]4(C)[C@H]3CC[C@]12C [TUDCA, tauroursodeoxycholic acid]",amyloid deposits (thioflavin staining),APP/PS1 mice [1]; TUDCA-treated wild-type mice,absent
same,thioflavin plaque number,"APP/PS1 mice [1]; hippocampus and frontal cortex, APP/PS1 mice fed 0.4% (wt/wt) TUDCA for 6 months vs control transgenic mice, p<0.01",marked reduction
same,decrease of Aβ plaque number,"APP/PS1 mice [2]; frontal cortex, p<0.05",40%
same,decrease of Aβ plaque number,"APP/PS1 mice [2]; hippocampus, p<0.01",~65%
same,"recognition, and spatial and contextual fear memory",APP/PS1 mice [3],improved
same,GFAP immunoreactivity,APP/PS1 mice [4],decreased
same,Iba-I immunoreactivity,"APP/PS1 mice [5]; TUDCA-treated APP/PS1 mice relative to control APP/PS1 mice, p<0.05",significantly less
same,reactive microglia around amyloid plaques (Iba-I/thioflavin double-staining),APP/PS1 mice [5]; brains of TUDCA-treated APP/PS1 mice vs control APP/PS1 mice,fewer reactive microglia
same,integrity of the neuronal fibers around amyloid plaques (MAP2/amyloid double staining),APP/PS1 mice [6]; brains of TUDCA-treated APP/PS1 mice,significant improvement
same,MAP2 immunoreactivity,"APP/PS1 mice [6]; hippocampus and frontal cortex of APP/PS1 mice, p<0.05",prevented the loss
same,A2M expression (mRNA),[7]; APP/PS1 mice frontal cortex,trend for decreased
same,APOE expression (mRNA),[7]; APP/PS1 mice frontal cortex,trend for decreased
same,CTGF expression (mRNA),"[7]; APP/PS1 mice frontal cortex, p<0.05",significantly decreased
same,SORLA expression (mRNA),[7]; APP/PS1 mice hippocampus,slightly increasing
same,A2M expression (mRNA),[7]; [10],significantly decreased
same,APOE expression (mRNA),[7]; [10],significantly decreased
same,CTGF expression (mRNA),[7]; [10],significantly decreased
same,CTF-β levels,γ-secretase; TUDCA-fed transgenic mice vs control transgenic mice,decreased
same,total Aβ levels,γ-secretase; TUDCA-treated APP/PS1 mice vs control APP/PS1 mice,decreased
same,full-length APP levels,γ-secretase; [11],remained unchanged
same,production of CTF-γ,γ-secretase; [11],decrease
same,Aβ1-40 levels,APP/PS1 mice [8],significantly decreased
same,Aβ1-42 levels,APP/PS1 mice [8],significantly decreased
same,downregulation of A2M expression,hepatocytes,greater than 10 fold
same,downregulation of CTGF expression,hepatocytes,greater than 10 fold
same,oral bioavailability,[9],orally bioavailable
